Details of series [1]: method as in PMID 9682146, PMID 9654110. The conditions noted are these: after oral administration; cited from earlier work.
On the set-up of series [2]: method as in PMID 30845345. Particulars: mice; oral and inhalation intake; within 30 min post administration; cited from earlier work.
Series [3] is described as follows: Limonene exhalation kinetics in breath (Breath Biopsy, GC-MS) after ingestion of 100 mg limonene. The conditions noted are these: for Cmax (ng) median [IQR]: 100 mg limonene oral, overnight fast.
On the set-up of series [4]: method as in PMID 20661827. Particulars: cited from earlier work.
The nature of series [5]: Breath limonene by selected ion flow tube mass spectrometry (SIFT-MS), one 15 s exhalation. The format is in vivo. The conditions noted are these: unpublished data.

Molecules are shown by their SMILES.

The source of these data is paper PMC10669625 (Biomedicines, 2023).

Turning to `C=C(C)[C@H]1CC=C(C)CC1` [limonene], in series [1], the Distribution volume result is listed as “greater than total body water”. Moreover, the Organ distribution entry in series [2] is recorded as “majority of limonene found in the liver”. For the same molecule, the “Limonene spike in breath after administration compared to baseline” value in series [3] (all subjects, 100 mg limonene) was > 100 fold. Further, in series [3] (breath, semi-logarithmic scale, control group), the “Slope (rate of elimination)” value was −0.027 [−0.031–−0.023]. Besides, in series [3] (breath, cirrhosis group), the “AUC (0–90 min) median [IQR]” value was 121,437 [57,921–202,733] ng × min/400 mL and the “Cmax (ng) median [IQR]” value is 2077 [1051–4260] ng. For the same molecule, in series [3] (breath, control group), the “AUC (0–90 min) median [IQR]” value is 27,107 [17,605–34,946] ng × min/400 mL and the “Cmax (ng) median [IQR]” value was 595 [361–903] ng. Moreover, the Cmax in series [3] (case report subject DYL10297 (enrolled as control, suspected mild chronic liver disease), at 40 min) turned out to be 2421 ng. Besides, in series [4] (after 4 weeks of continuous exposure), the “Average increase in adipose tissue” value is listed as 44 fold. For the same molecule, the “Accumulation in adipose tissue” value in series [4] (after a single dose) is given as “no accumulation”. Further, in series [5], the “Breath levels of limonene before administration” value is “a few” and the “Increase of breath limonene after administration vs before” value is listed as > 1000 fold. Also, the “Breath levels of limonene after administration” value in series [5] (up to) was 5–10 PPM.
